According to US20130230458A1, “Cell Permeable Inhibitors of Anaphase Promoting Complex” (PRESIDENT AND FELLOWS OF HARVARD COLLEGE, priority 2010, published 2013):
Where a SMILES comes first, the peptide text is derived from it. The star is where a group is joined. Cbz = O=C(OCc1ccccc1)*

Legend:
HeLa H2B-GFP cells [1] = experiment: Live cell imaging of mitotic duration and cell fate; assay type: cell-based, human
Experimental: Detailed siRNA transfection and drug treatment schemes are described in supplemental experimental procedures. HeLa H2B-GFP cells were plated in DMEM with 10% FBS at 20% confluence. […] Live cell imaging was performed at 12 minute intervals on a Nikon TE2000E PFS inverted microscope fitted with an incubation chamber maintained at 37° C. and supplied with 5% CO2. Cell division was tracked by manual inspection of movies, and mitotic duration was measured as the time between the first frame of chromosome condensation and the frame of chromosome segregation (anaphase), decondensation (mitotic exit without anaphase) or cell death (chromosomes shrinking to a small bright dot).
The imaging plate was mounted onto a motorized stage (Prior ProScan II) on a Nikon TE2000E PFS inverted microscope fitted with an incubation chamber maintained at 37° C. and supplied with 5% CO2. […] TIFF files of each image were exported from Elements and used to build stacks and Quicktime movies with Metamorph imaging software (Molecular Devices). For manual analysis, mitotic duration is counted as the time between the first frame of chromosome condensation and the frame of chromosome segregation (anaphase) or decondensation (mitotic exit in the presence of nocodazole) or cell death (chromosomes shrinking to a small bright dot).
HeLa H2B-GFP cells were plated in a 24-well plate in DMEM 10% FBS at 20% confluence one day prior to experiment and synchronized by double thymidine block as described above. […] Live cell imaging was set up as described above.
HeLa H2B-GFP cells were plated in a 24-well plate in DMEM+10% FBS at 20% confluence one day prior to the experiment and synchronized by double thymidine block as described above. The cells were released from the first thymidine block into 200 μl OptiMem without FBS. Transfection was performed immediately after the first thymidine release. […] The two mixtures were left at room temperature for 5 min before being mixed together and incubated for additional 20 min and then added to the cells to a final volume of 250 μl. 4 h after transfection, 250 μl of DMEM+20% FBS were added to cells.
HeLa H2B-GFP cells were plated in glass-bottom 24-well plates at 20% confluence one day prior to the experiment and synchronized by double thymidine block as described above. […] Cells were treated with 100 nM Hesperadin or DMSO 8 h after release from the second thymidine block and live cell imaging was set up as described above.
HeLa H2B-GFP cells were plated in a 24-well plate in DMEM+10% FBS at 20% confluence one day prior to experiment and synchronized by double thymidine block as synchronized above. […] Live cell imaging was set up as described above.
HeLa H2B-GFP cells were plated in a 24-well plate in DMEM+10% FBS at 20% confluence one day prior to experiment and synchronized by double thymidine block as described above. […] Untreated cells were used as the control. Live cell imaging was set up as described above. […] Alternatively, at 10 h after release from the second block, 10 μM MG132 with or without 25 μg/ml cycloheximide was added to the cells. […] Live cell imaging was set up as described above.
HeLa H2B-GFP cells were plated in a 24-well plate in DMEM+10% FBS at 20% confluence one day prior to experiment and synchronized by double thymidine block as described above. Mad2 siRNA transfection was performed as described above. At 10 h after release from the second block, 10 μM MG132 with or without 25 μg/ml cycloheximide was added to the cells. Live cell imaging was set up as described above. Manual analysis was focused only on cells that entered mitosis after MG132 addition.

HeLa H2B-GFP cells [2] = experiment: Chromosome congression analysis; assay type: cell-based, human
Experimental: HeLa H2B-GFP cells were plated in 35 mm glass-bottom dishes (MatTek) in DMEM+10% FBS at 20% confluence one day prior to the experiment and synchronized by double thymidine block as described above. Drugs were added as follows to a final volume of 3 ml from 2× concentrated preparation in culture medium. DMSO (0.06%), proTAME (3 and 12 μM) or 10 nM Nocodazole were added 8 h after release from the second block, while MG132 (10 μM) was added at 10 h. H2B-GFP was imaged for 4 hrs every 3 min at 40× magnification as described above.

HeLa cells = experiment: Live imaging of HeLa cells expressing Histone 2B-GFP (Examples 1 and 2); assay type: cell-based, human; details: 3 μM MG132
Description: Cumulative frequency curves of mitotic duration were plotted.
The same experiment in 1B was done with proAAME.
Synchronized HeLa cells were transfected with Mad2/control siRNA followed by drug treatments. Cumulative frequency curves of mitotic duration were plotted.
Asynchronous HeLa cells were transfected with Mad2 or control siRNA.
For comparison, the curves obtained in H2B-GFP fluorescent imaging experiment shown in FIG. 1B were plotted on the same graph.

HeLa H2B-GFP cells [3] = assay type: cell-based, human; details: double thymidine synchronized, drugs 10 hrs after release; proTAME 3 μM; MG132 concentration not given
Experimental: To determine whether proTAME treatment can enhance mitotic arrest and cell death induced by taxol or a proteasome inhibitor (MG132), HeLa H2B-GFP cells were co-treated with low doses of the microtubule poison Taxol or the proteasome inhibitor MG132 in combination with a low dose of proTAME.
Unsychronized HeLa H2B-GFP cells were treated with DMSO (control), taxol 10 nM or proTAME 3 μM or a combination of Taxol 10 nM and proTAME 3 μM (FIG. 26). The cells were imaged by FITC fluorescence microscopy to monitor the cell cycle and mitotic events.
To analyze interactions between proTAME and a proteasome inhibitor (FIG. 27), HeLa H2B-GFP cells were synchronized by double thymidine block (2 mM thymidine block for 18 hrs, release in medium for 8 hrs 2 mM thymidine block for 18 hrs), and treated with the drugs 10 hrs after release from the block as the cells just entered mitosis.

hTERT-RPE1 H2B-GFP cells = experiment: Live cell imaging of mitotic duration in hTERT-RPE1 cells; assay type: cell-based
Experimental: FIG. 18A is a graph and table showing that proTAME induces a mitotic delay in hTERT-RPE1 H2B-GFP cells. Asynchronous hTERT-RPE1 H2B-GFP cells were treated with 0.06% DMSO, 6 μM proTAME or 12 μM proAAME. Cells were imaged at 12 min interval. Cumulative frequency curves of mitotic duration and cell fate distribution are shown.
The imaging plate was mounted onto a motorized stage (Prior ProScan II) on a Nikon TE2000E PFS inverted microscope fitted with an incubation chamber maintained at 37° C. and supplied with 5% CO2. A 20× Plan Apo 0.75 NA or 40× Plan Fluor 0.75 NA objective lens was used as indicated and images were collected with 2×2 binning DIC or GFP fluorescent images were taken every 12 min (unless otherwise specified) for 36 h with a Hamamatsu ORCA cooled CCD camera and Nikon Elements Software. TIFF files of each image were exported from Elements and used to build stacks and Quicktime movies with Metamorph imaging software (Molecular Devices). For manual analysis, mitotic duration is counted as the time between the first frame of chromosome condensation and the frame of chromosome segregation (anaphase) or decondensation (mitotic exit in the presence of nocodazole) or cell death (chromosomes shrinking to a small bright dot).

cyclin B1-GFP = experiment: Exogenous cyclin-GFP expression, live-cell imaging and quantitation (cyclin B1-GFP); assay type: cell-based, human; details: HeLa H2B-RFP; 20 μM proTAME or proAAME, 150 nM nocodazole
Experimental: (§1) HeLa H2B-RFP cells were transduced with cyclin B1-GFP or cyclin A2-GFP adenovirus for 40 h. Phenol Red-Free DMEM (Mediatech) supplemented with 10% FBS and 1:100 Penicillin-Streptomycin-Glutamine (Mediatech) was used as imaging medium. 20 μM proTAME, […] or 150 nM nocodazole was added 45 min prior to the start of imaging. Live cell imaging was set up as described above except that the cells were plated in an 8-well chambered coverglasses (NUNC Lab-tek 155411). Four positions per treatment group were imaged with DIC transmitted light, red fluorescence, and green fluorescence (Semrock GFP/HcRed “Pinkel” filter set) at 12 min intervals for 24 h. Stacks of red and green fluorescence were merged, saved as AVI video files and analyzed using ImageJ. For quantitation, the first GFP-positive cells that undergo mitosis in three separate movies were chosen, giving at least 30 cells quantitated for each treatment group. Mean intensity values for the green channel were collected for a cytoplasmic region of a cell upon mitotic entry, mitotic exit, or after 1 h of mitotic arrest. At the same time points, background mean green intensity was determined and individually subtracted from the cytoplasmic mean intensity. This background corrected mean intensity value was then used to determine the percentage of the original GFP signal remaining at the completion of division (for the control cells) or after 1 h of mitotic arrest (for the nocodazole and proTAME treated cells). The average values for all quantitated cells were plotted with the error bars representing standard error of the mean.

cyclin A2-GFP = experiment: Exogenous cyclin-GFP expression, live-cell imaging and quantitation (cyclin A2-GFP); assay type: cell-based, human; details: HeLa H2B-RFP; 20 μM proTAME or proAAME, 150 nM nocodazole
Experimental: as §1

APC = target: T1, APC (Homo sapiens, UniProt P30260); experiment: Cdc20/Cdh1 binding assay in HeLa cells; assay type: cell-based; details: 12 μM, HeLa released from nocodazole block
T1 construct: endogenous in cells; host or cells: HeLa cells (synchronised; in some experiments also Mad2/BubR1 siRNA and cyclin B1Δ107 adenovirus)
Experimental: HeLa cells in DMEM 10% FBS were plated in T25 flasks at 20% confluence one day prior to the experiment. They were then synchronized by a double thymidine block (18 h for the first block, 8 h release and another 18 h for the second block, thymidine concentration: 2 mM). For analysis of Cdh1 binding, cells were released into […] from the second thymidine block for 13 h and then washed into fresh medium. Six h later, cells were treated with 12 μM proTAME or […] or 0.06% DMSO for 2 h and then collected by trypin digrestion. For analysis of Cdc20 binding, cells were transfected with indicated siRNAs during the first release from thymidine block after two washes with DPBS (CellGro 21-030-CV) and addition of 6.3 ml OptiMEM. A volume (79 μl) of 20 μl Control siRNA#3 or a 1:1 mix of 20 μl MAD2 siRNA and BubR1 siRNA (Dharmacon D-004101-01, 5′-[…]-3′ (SEQ ID NO: 11)) was mixed in 1381 μl OptiMEM in a tube, 23.7 μl OligoFectamine were mixed with 94.1 μl OptiMEM in a second tube. After 5 min incubation at RT, the tubes contents were mixed and siRNA-reagent complexes were allowed to form for 20 min at RT. The transfection mixes were added to cells in OptiMEM and FBS was added to 10% after 5 h transfection. Cyclin B1-4107 expressing adenovirus (1:100) was added at the start of the second thymidine block and kept in the medium for all subsequent steps. […]

[4] = proTAME 12 μM, MG132 10 μM, Nocodazole 10 nM
[5] = 12 μM, double thymidine synchronized, added 8 h after release
[6] = asynchronous hTERT-RPE1 H2B-GFP, proAAME 12 μM, proTAME 6 μM

T1 sequence (P30260 whole entry): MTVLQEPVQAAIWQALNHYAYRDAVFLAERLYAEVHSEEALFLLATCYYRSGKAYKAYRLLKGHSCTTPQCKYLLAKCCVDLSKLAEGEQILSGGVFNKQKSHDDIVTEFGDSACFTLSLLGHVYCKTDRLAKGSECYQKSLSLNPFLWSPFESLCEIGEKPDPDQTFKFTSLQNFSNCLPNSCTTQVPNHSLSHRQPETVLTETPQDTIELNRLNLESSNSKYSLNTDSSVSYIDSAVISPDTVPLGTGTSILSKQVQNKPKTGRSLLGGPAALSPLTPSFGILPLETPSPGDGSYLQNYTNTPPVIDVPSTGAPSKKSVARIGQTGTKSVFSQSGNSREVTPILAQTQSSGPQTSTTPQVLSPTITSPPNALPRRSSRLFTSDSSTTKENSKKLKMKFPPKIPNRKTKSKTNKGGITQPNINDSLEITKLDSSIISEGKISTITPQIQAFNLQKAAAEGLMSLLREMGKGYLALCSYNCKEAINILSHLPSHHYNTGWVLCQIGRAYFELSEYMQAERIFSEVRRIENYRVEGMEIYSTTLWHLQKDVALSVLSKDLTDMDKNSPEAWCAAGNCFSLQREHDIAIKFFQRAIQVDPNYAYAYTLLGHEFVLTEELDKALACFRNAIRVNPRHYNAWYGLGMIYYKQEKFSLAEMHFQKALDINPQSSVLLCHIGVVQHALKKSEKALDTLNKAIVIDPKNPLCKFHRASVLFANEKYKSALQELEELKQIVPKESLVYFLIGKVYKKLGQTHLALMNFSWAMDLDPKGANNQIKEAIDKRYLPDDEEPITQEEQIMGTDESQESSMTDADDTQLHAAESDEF

Row | Structure (SMILES) | Cells that exited mitosis during the 30 h experiment (HeLa H2B-GFP cells [1]; 3 μM MG132, control cells) | Time a normal-appearing metaphase plate is maintained (HeLa H2B-GFP cells [1]; MG132 alone) | Delay in chromosome congression (in words) (HeLa H2B-GFP cells [2]; 3 μM proTAME or 10 μM MG132) | Average chromosome congression time (prophase to full metaphase congression) (HeLa H2B-GFP cells [2]; [4]) | Median chromosome congression time (prophase to full metaphase congression) (HeLa H2B-GFP cells [2]; [4]) | Mad2-dependence of mitotic arrest (HeLa cells) | Median mitotic delay / arrest (HeLa H2B-GFP cells [3]) | Mitotic phenotype (HeLa H2B-GFP cells [1]; 12 μM) | Average mitotic duration (HeLa H2B-GFP cells [1]; [5]) | Median mitotic duration (HeLa H2B-GFP cells [1]; [5]) | Average mitotic duration (hTERT-RPE1 H2B-GFP cells; [6]) | Median mitotic duration (hTERT-RPE1 H2B-GFP cells; [6]) | Median mitotic duration (hTERT-RPE1 H2B-GFP cells; proAAME-treated hTERT-RPE1 cells) | Average cyclin B1-GFP intensity remaining at 60 min vs onset of mitosis (cyclin B1-GFP) | Median cyclin B1-GFP intensity remaining at 60 min vs onset of mitosis (cyclin B1-GFP) | Average cyclin A2-GFP intensity remaining at 60 min vs onset of mitosis (cyclin A2-GFP) | Median cyclin A2-GFP intensity remaining at 60 min vs onset of mitosis (cyclin A2-GFP) | Cdh1 association with the APC in G1 cells (APC)
1 | CC(C)C[C@@H](C=O)NC(=O)[C@H](CC(C)C)NC(=O)[C@H](CC(C)C)NC(=O)OCc1ccccc1 [MG132, reference compound] (Cbz-Leu-Leu-Leu-aldehyde) | 10% | over 5 h | no delay in chromosome congression | 21.6 min | 21 min | partially dependent on Mad2 | 276 min |  |  |  |  |  |  |  |  |  |  | 
2 | COC(=O)[C@H](CC(C)N=C(NC(=O)OCOC(=O)Cc1ccccc1)NC(=O)OCOC(=O)Cc1ccccc1)NC(C)=O (stereo partly drawn) [proAAME, methyl(S)-2-(acetyl)amino-4-[[bis[[[[(phenylacetyl)oxy]methoxy]carbonyl]amino]methylene]amino]pentanoate] |  |  |  |  |  |  |  | no effect | 100.5 min | 84 min | 32.1 min | 36 min | 24 min | 0.15 fraction remaining | 0.15 fraction remaining | 0.08 fraction remaining | 0.06 fraction remaining | did not
